From PubChem BioAssay AID248 (DTP/NCI, 2004)
“And” between values parts separate entries of the source, which are not always exact repeats. Identical values can stand only once. Inconclusive results and toxic doses are left out. No stated cut-off is given here; in the data, active means T/C of 150% or more; inactive means T/C below 125%. Peptide text beside a SMILES is read from it. * marks the point of attachment. Cbz = O=C(OCc1ccccc1)*

Test system: L1210 leukemia ip in BDF1 mice, survival T/C
Assay: NCI In Vivo Anticancer Drug Screen. Data for tumor model L1210 Leukemia (intraperitoneal) in B6D2F1 (BDF1) mice
Settings: endpoint: mean survival time, higher = longer survival
Method in brief: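 In this screen, tumor-bearing mice given compound are compared to those given vehicle, and their survival values are reported as a treated-to-control quotient.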

[1] = dose: 100.0 mg/kg/injection, schedule: Q04DX002 (ip), vehicle: saline with Tween-80
[2] = dose: 200.0 mg/kg/injection, schedule: Q04DX002 (ip), vehicle: saline with Tween-80
[3] = dose: 400.0 mg/kg/injection, schedule: Q04DX002 (ip), vehicle: saline with Tween-80
[4] = dose: 100.0 mg/kg/injection, schedule: Q01DX001 (ip), vehicle: carboxymethylcellulose (CMC)
[5] = dose: 200.0 mg/kg/injection, schedule: Q01DX001 (ip), vehicle: carboxymethylcellulose (CMC)
[6] = dose: 400.0 mg/kg/injection, schedule: Q01DX001 (ip), vehicle: carboxymethylcellulose (CMC)
[7] = dose: 100.0 mg/kg/injection, schedule: Q04DX003 (ip), vehicle: saline with Tween-80
[8] = dose: 200.0 mg/kg/injection, schedule: Q04DX003 (ip), vehicle: saline with Tween-80
[9] = dose: 400.0 mg/kg/injection, schedule: Q04DX003 (ip), vehicle: saline with Tween-80
[10] = dose: 100.0 mg/kg/injection, schedule: Q01DX009 (ip), vehicle: saline with Tween-80
[11] = dose: 200.0 mg/kg/injection, schedule: Q01DX009 (ip), vehicle: saline with Tween-80
[12] = dose: 100.0 mg/kg/injection, schedule: Q04DX002 (ip), vehicle: Klucel (hydroxypropylcellulose) (HPC)
[13] = dose: 200.0 mg/kg/injection, schedule: Q04DX002 (ip), vehicle: Klucel (hydroxypropylcellulose) (HPC)
[14] = dose: 400.0 mg/kg/injection, schedule: Q04DX002 (ip), vehicle: Klucel (hydroxypropylcellulose) (HPC)

Measured: T/C

CC(CO)(CO)Cc1ccccc1
inactive: [1] 97 % of control | [2] 108 % of control | [3] 120 % of control

CCOc1cc(F)cc([N+](=O)[O-])c1
inactive: [4] 97 % of control | [5] 108 % of control | [6] 89 % of control

COC(=O)c1c(C(=O)c2ccccc2)nn2c(-c3ccccc3)c(-c3ccccc3)c(-c3ccccc3)c(-c3ccccc3)c12
inactive: dose: 200.0 mg/kg/injection, schedule: Q01DX001 (ip), vehicle: saline 86 % of control | dose: 400.0 mg/kg/injection, schedule: Q01DX001 (ip), vehicle: saline 93 % of control

CN(C)C(=NN=C(N(C)C)N(C)C)N(C)C
inactive: dose: 12.5 mg/kg/injection, schedule: Q04DX003 (sc), vehicle: saline 102 % of control | dose: 25.0 mg/kg/injection, schedule: Q04DX003 (sc), vehicle: saline 107 % of control | dose: 50.0 mg/kg/injection, schedule: Q04DX003 (sc), vehicle: saline 100 % of control | dose: 100.0 mg/kg/injection, schedule: Q04DX003 (sc), vehicle: saline 98 % of control

CC(C)CCC1=C(O)c2ccccc2C(=O)C1=O
inactive: dose: 30.0 mg/kg/injection, schedule: Q01DX015 (ip), vehicle: water 100 % of control | dose: 35.0 mg/kg/injection, schedule: Q01DX015 (ip), vehicle: water 106 % of control | dose: 45.0 mg/kg/injection, schedule: Q01DX015 (ip), vehicle: water 95 % of control | dose: 70.0 mg/kg/injection, schedule: Q01DX015 (ip), vehicle: water 103 % of control

COC(=O)C1(N(C)C)c2ccccc2-c2ccccc21
inactive: [4] 105 % of control

COC(=O)C(NC(=O)C1CCCN1C(=O)OCc1ccccc1)C(C)C (stereo not drawn) (Cbz-Pro-Val-OMe; configuration not given here)
inactive: dose: 25.0 mg/kg/injection, schedule: Q04DX003 (ip), vehicle: saline with Tween-80 95 % of control | dose: 50.0 mg/kg/injection, schedule: Q04DX003 (ip), vehicle: saline with Tween-80 95 % of control | [7] 106 % of control | [8] 95 % of control | [9] 94 % of control

[CH3][Sn]1([CH3])[c]2ccccc2Oc2cccc[c]21
inactive: dose: 100.0 mg/kg/injection, schedule: Q01DX001 (ip), vehicle: other 92 % of control | dose: 200.0 mg/kg/injection, schedule: Q01DX001 (ip), vehicle: other 97 % of control | dose: 400.0 mg/kg/injection, schedule: Q01DX001 (ip), vehicle: other 87 % of control

O=c1oc(Cl)c(Cl)c(Cl)c1Cl
inactive: dose: 2.2 mg/kg/injection, schedule: Q01DX Z (ip), vehicle: methylcellulose (MC) 93 % of control

CC1=NN(c2ccccc2)C(=O)CC1
inactive: dose: 100.0 mg/kg/injection, schedule: Q04DX003 (ip), vehicle: Klucel (hydroxypropylcellulose) (HPC) 106 % of control | dose: 200.0 mg/kg/injection, schedule: Q04DX003 (ip), vehicle: Klucel (hydroxypropylcellulose) (HPC) 100 % of control | dose: 400.0 mg/kg/injection, schedule: Q04DX003 (ip), vehicle: Klucel (hydroxypropylcellulose) (HPC) 105 % of control

COc1ccc(OC(=O)Nc2ccc(Cl)cc2[N+](=O)[O-])cc1
inactive: [10] 95 % of control and 96 % of control | [1] 95 % of control and 98 % of control | [7] 97 % of control | [11] 99 % of control and 106 % of control | [2] 95 % of control and 101 % of control | [8] 110 % of control | dose: 400.0 mg/kg/injection, schedule: Q01DX009 (ip), vehicle: saline with Tween-80 99 % of control and 103 % of control | [3] 95 % of control and 98 % of control | [9] 100 % of control

CC(C)OC(=O)Nc1cccc([N+](=O)[O-])c1
inactive: [12] 105 % of control | [13] 91 % of control | [14] 97 % of control

O=P(NO)(c1ccccc1)c1ccccc1
inactive: [4] 92 % of control | [5] 95 % of control | [6] 95 % of control

COC(=O)C(Cc1c[nH]c2ccccc12)[N+](C)(C)C (stereo not drawn)
inactive: dose: 35.0 mg/kg/injection, schedule: Q01DX Z (ip), vehicle: saline 95 % of control | dose: 50.0 mg/kg/injection, schedule: Q01DX Z (ip), vehicle: saline 97 % of control

FC(F)(F)c1cccc(NC(=S)NNC(=S)NNc2ccccc2)c1
inactive: [12] 101 % of control | [13] 101 % of control | [14] 101 % of control

O=C(NCCCl)Sc1ccc(Cl)cc1
inactive: dose: 20.0 mg/kg/injection, schedule: Q04DX003 (ip), vehicle: Klucel (hydroxypropylcellulose) (HPC) 92 % of control | dose: 40.0 mg/kg/injection, schedule: Q04DX003 (ip), vehicle: Klucel (hydroxypropylcellulose) (HPC) 90 % of control | dose: 80.0 mg/kg/injection, schedule: Q04DX003 (ip), vehicle: Klucel (hydroxypropylcellulose) (HPC) 93 % of control

C/C=C\c1ccc(OC(=O)Nc2ccc(C(=O)OCC)cc2)c(OC)c1
inactive: dose: 100.0 mg/kg/injection, schedule: Q01DX009 (ip), vehicle: Klucel (hydroxypropylcellulose) (HPC) 94 % of control | dose: 200.0 mg/kg/injection, schedule: Q01DX009 (ip), vehicle: Klucel (hydroxypropylcellulose) (HPC) 94 % of control | dose: 400.0 mg/kg/injection, schedule: Q01DX009 (ip), vehicle: Klucel (hydroxypropylcellulose) (HPC) 89 % of control

COc1ccccc1-n1c(C)nc2c1C(=O)c1ccccc1C2=O
inactive: [7] 96 % of control | [8] 93 % of control | [9] 96 % of control

CC(=O)Nc1ccc(/C=N/NC(=O)C(O)(c2ccccc2)c2ccccc2)cc1
inactive: [4] 97 % of control | [5] 103 % of control | [6] 97 % of control

O=C(C[n+]1ccccc1)c1ccccc1
inactive: dose: 25.0 mg/kg/injection, schedule: Q04DX002 (ip), vehicle: saline 98 % of control | dose: 50.0 mg/kg/injection, schedule: Q04DX002 (ip), vehicle: saline 95 % of control | dose: 100.0 mg/kg/injection, schedule: Q04DX002 (ip), vehicle: saline 98 % of control

OC(CC(O)(C(F)(F)F)C(F)(F)F)c1cccc(Cl)c1 (stereo not drawn)
inactive: dose: 50.0 mg/kg/injection, schedule: Q01DX009 (ip), vehicle: gum acacia 96 % of control | dose: 100.0 mg/kg/injection, schedule: Q01DX009 (ip), vehicle: gum acacia 94 % of control | dose: 100.0 mg/kg/injection, schedule: Q04DX003 (ip), vehicle: gum acacia 104 % of control | dose: 200.0 mg/kg/injection, schedule: Q04DX003 (ip), vehicle: gum acacia 95 % of control

O=C(CNC(c1ccccc1)(c1ccccc1)c1ccccc1)OC(c1ccccc1)c1ccccc1
inactive: [10] 86 % of control | dose: 100.0 mg/kg/injection, schedule: Q04DX003 (ip), vehicle: saline sonified 106 % of control | [11] 89 % of control | dose: 200.0 mg/kg/injection, schedule: Q04DX003 (ip), vehicle: saline sonified 92 % of control | dose: 400.0 mg/kg/injection, schedule: Q04DX003 (ip), vehicle: saline sonified 97 % of control
